The target of the test is T1, human CRHR2 (Homo sapiens, UniProt Q13324).
T1 construct: expressed in transfected cells
T1 sequence (Q13324 1-438 isoform Q13324-2): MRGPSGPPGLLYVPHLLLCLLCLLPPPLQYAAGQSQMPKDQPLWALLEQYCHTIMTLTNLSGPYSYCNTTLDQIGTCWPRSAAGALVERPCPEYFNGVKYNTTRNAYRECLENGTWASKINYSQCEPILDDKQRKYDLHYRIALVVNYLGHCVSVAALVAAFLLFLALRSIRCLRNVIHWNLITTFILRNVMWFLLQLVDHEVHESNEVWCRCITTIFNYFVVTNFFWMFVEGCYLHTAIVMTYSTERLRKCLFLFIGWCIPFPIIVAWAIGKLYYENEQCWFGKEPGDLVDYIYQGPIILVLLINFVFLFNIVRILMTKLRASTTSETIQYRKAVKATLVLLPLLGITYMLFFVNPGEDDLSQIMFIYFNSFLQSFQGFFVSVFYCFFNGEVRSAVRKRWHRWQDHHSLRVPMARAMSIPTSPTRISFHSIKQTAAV
The test is described as follows: Human CRHR2 cAMP assay (HTRF) in HEK293 cells stably expressing human CRHR2. Type of test: cell-based. To be noted: HEK293 cells overexpressing human CRHR2; relative EC50, maximum 10 nM human UCN2; mean ± SE; read-out: hCRHR2 cAMP EC50 (pM, ± SE). Put shortly: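 HEK293 cells stably expressing human CRHR1 (25,000/well) or CRHR2b (5,000/well) were treated with peptides in MEM with 0.1% casein, 5 mM HEPES pH 7.4 and 0.25 mM IBMX. Incubation was 1 h at 37 °C for CRHR1 and 30 min at room temperature for CRHR2. cAMP was measured by HTRF (665/620 nm) against a per-experiment cAMP standard curve.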
In general terms: Cyclic AMP is a second messenger, typically raised through Gs and lowered through Gi signalling.

*1 amine or outer side, *2 acyl side, *3 side chain or, on linkers, in order; H or OH if unused. Where a SMILES comes first, the peptide text is derived from it. Side-chain parts run from the residue outwards. [ ]: non-standard residue; d: D form. The star is where a group is joined. C20 diacid = O=C(O)CCCCCCCCCCCCCCCCCCC(=O)*; γGlu = O=C(O)[C@H](CCC(=O)[*:2])N[*:1]; εLys = N[C@@H](CCCCN[*:1])C(=O)[*:2]; NMeI = CC[C@H](C)[C@H](NC)C(=O)O; αMeL = CC(C)C[C@](C)(N)C(=O)O; AEEA = NCCOCCOCC(=O)O; Aib = CC(C)(N)C(=O)O

`CC[C@H](C)[C@H](NC(C)=O)C(=O)N[C@H](C(=O)N[C@H](C(=O)N[C@@H](CO)C(=O)N[C@@](C)(CC(C)C)C(=O)N[C@@H](CC(=O)O)C(=O)N[C@@H](C(=O)N1CCC[C@H]1C(=O)N[C@H](C(=O)NCC(=O)N[C@@](C)(CC(C)C)C(=O)N[C@@H](CC(C)C)C(=O)N[C@@H](CCC(N)=O)C(=O)N[C@H](C(=O)N[C@@H](CCCCN)C(=O)N[C@@H](CC(C)C)C(=O)N[C@@H](CCC(=O)O)C(=O)N[C@@H](CCC(N)=O)C(=O)N[C@@H](CCC(=O)O)C(=O)N[C@@H](CCCNC(=N)N)C(=O)N[C@@H](C)C(=O)N[C@@H](CCC(=O)O)C(=O)N[C@@H](CCCCN)C(=O)N[C@@H](C)C(=O)N[C@@H](CCCNC(=N)N)C(=O)N[C@@H](CCC(N)=O)C(=O)N[C@@H](CCC(N)=O)C(=O)N[C@@H](C)C(=O)N[C@@H](CCCCNC(=O)COCCOCCNC(=O)COCCOCCNC(=O)CC[C@H](NC(=O)CCCCCCCCCCCCCCCCCCC(=O)O)C(=O)O)C(=O)N[C@@H](CCC(=O)O)C(=O)N[C@@H](CC(N)=O)C(=O)N[C@H](C(=O)N[C@@H](CCC(=O)O)C(=O)N[C@H](C(=O)N[C@@H](CC(C)C)C(=O)N[C@@H](C)C(=O)N[C@@H](CCC(N)=O)C(=O)N[C@H](C(N)=O)C(C)C)[C@@H](C)CC)[C@@H](C)O)[C@@H](C)CC)[C@@H](C)O)C(C)C)[C@@H](C)O)C(C)C` [SEQ ID NO: 29, Ac-IVTS αMeL D (D-Val) PTG αMeL LQIKLEQERAEKARQ QAK((2-[2-(2-Amino-ethoxy)-ethoxy]-acetyl)2-γE-CO-(CH2)18-CO2H)ENTEILAQV-NH2] (Ac-IVTS[αMeL]D[dV]PTG[αMeL]LQIKLEQERAEKARQQAK([AEEA-AEEA-γGlu-C20 diacid])ENTEILAQV-NH2): the 50% effective concentration (EC50) was 5.6 ± 0.4 pM.

For `CC[C@H](C)[C@H](NC(C)=O)C(=O)N[C@H](C(=O)N[C@H](C(=O)N[C@@H](CO)C(=O)N[C@@](C)(CC(C)C)C(=O)N[C@@H](CC(=O)O)C(=O)N[C@@H](C(=O)N1CCC[C@H]1C(=O)N[C@H](C(=O)NC(C)(C)C(=O)N[C@@](C)(CC(C)C)C(=O)N[C@@H](CC(C)C)C(=O)N[C@@H](CCC(N)=O)C(=O)N[C@H](C(=O)N[C@@H](CCCCN)C(=O)N[C@@H](CC(C)C)C(=O)N[C@@H](CCC(=O)O)C(=O)N[C@@H](CCC(N)=O)C(=O)N[C@@H](CCC(=O)O)C(=O)N[C@@H](CCCNC(=N)N)C(=O)N[C@@H](C)C(=O)N[C@@H](CCC(=O)O)C(=O)N[C@@H](CCCCN)C(=O)N[C@@H](C)C(=O)N[C@@H](CCCNC(=N)N)C(=O)N[C@@H](CCC(N)=O)C(=O)N[C@@H](CCC(N)=O)C(=O)N[C@@H](C)C(=O)N[C@@H](CCCCNC(=O)COCCOCCNC(=O)COCCOCCNC(=O)CC[C@H](NC(=O)CCCCCCCCCCCCCCCCCCC(=O)O)C(=O)O)C(=O)N[C@@H](CCC(=O)O)C(=O)N[C@@H](CC(N)=O)C(=O)N[C@H](C(=O)N[C@@H](CCC(=O)O)C(=O)N[C@H](C(=O)N[C@@H](CC(C)C)C(=O)N[C@@H](C)C(=O)N[C@@H](CCC(N)=O)C(=O)N[C@H](C(N)=O)C(C)C)[C@@H](C)CC)[C@@H](C)O)[C@@H](C)CC)[C@@H](C)O)C(C)C)[C@@H](C)O)C(C)C` [SEQ ID NO: 41, Ac-IVTS αMeL D (D-Val) PT Aib αMeL LQIKLEQERAEKARQQAK((2-[2-(2-Amino-ethoxy)-ethoxy]-acetyl)2-γE-CO-(CH2)18-CO2H)ENTEILAQV-NH2] (Ac-IVTS[αMeL]D[dV]PT[Aib][αMeL]LQIKLEQERAEKARQQAK([AEEA-AEEA-γGlu-C20 diacid])ENTEILAQV-NH2), the EC50 stood at 7 ± 0.9 pM. Regarding `CC[C@H](C)[C@H](NC)C(=O)N[C@H](C(=O)N[C@H](C(=O)N[C@@H](CO)C(=O)N[C@@H](CC(C)C)C(=O)N[C@@H](CC(=O)O)C(=O)N[C@H](C(=O)N1CCC[C@H]1C(=O)N[C@H](C(=O)NCC(=O)N[C@@](C)(CC(C)C)C(=O)N[C@@H](CC(C)C)C(=O)N[C@@H](CCC(N)=O)C(=O)N[C@@H](CCCCN)C(=O)N[C@@H](CC(C)C)C(=O)N[C@H](C(=O)N[C@@H](CCC(=O)O)C(=O)N[C@@H](CCC(N)=O)C(=O)N[C@@H](CCC(=O)O)C(=O)N[C@@H](CCCCN)C(=O)N[C@@H](CCC(N)=O)C(=O)N[C@@H](CCC(=O)O)C(=O)N[C@@H](CCCCN)C(=O)N[C@@H](CCC(=O)O)C(=O)N[C@@H](CCCCN)C(=O)N[C@@H](CCC(N)=O)C(=O)N[C@@H](CCC(N)=O)C(=O)N[C@@H](C)C(=O)N[C@@H](CCCCNC(=O)COCCOCCNC(=O)COCCOCCNC(=O)CC[C@H](NC(=O)CCCCCCCCCCCCCCCCCCC(=O)O)C(=O)O)C(=O)N[C@@H](CCC(=O)O)C(=O)N[C@@H](CC(N)=O)C(=O)N[C@H](C(=O)N[C@@H](CCC(=O)O)C(=O)N[C@H](C(=O)N[C@@H](CC(C)C)C(=O)N[C@@H](C)C(=O)N[C@@H](CCC(N)=O)C(=O)N[C@H](C(N)=O)C(C)C)[C@@H](C)CC)[C@@H](C)O)[C@@H](C)CC)[C@@H](C)CC)C(C)C)[C@@H](C)O)C(C)C` [SEQ ID NO: 49, (NMeI) VTSLDVPIG αMeL LQKLIEQEKQEKEKQQAK((2-[2-(2-Amino-ethoxy)-ethoxy]-acetyl)2-γE-CO-(CH2)18-CO2H)ENTEILAQV-NH2] (H-[NMeI]VTSLDVPIG[αMeL]LQKLIEQEKQEKEKQQAK([AEEA-AEEA-γGlu-C20 diacid])ENTEILAQV-NH2), the EC50 is 6.6 ± 0.9 pM. With `CC[C@H](C)[C@H](NC)C(=O)N[C@H](C(=O)N[C@H](C(=O)N[C@@H](CO)C(=O)N[C@@H](CC(C)C)C(=O)N[C@@H](CC(=O)O)C(=O)N[C@H](C(=O)N1CCC[C@H]1C(=O)N[C@H](C(=O)NCC(=O)N[C@@](C)(CC(C)C)C(=O)N[C@@H](CC(C)C)C(=O)N[C@@H](CCC(N)=O)C(=O)N[C@@H](CCCCN)C(=O)N[C@@H](CC(C)C)C(=O)N[C@@H](CC(C)C)C(=O)N[C@@H](CCC(=O)O)C(=O)N[C@@H](CCC(N)=O)C(=O)N[C@@H](CCC(=O)O)C(=O)N[C@@H](CCCNC(=N)N)C(=O)N[C@@H](C)C(=O)N[C@@H](CCC(=O)O)C(=O)N[C@@H](CCCCN)C(=O)N[C@@H](C)C(=O)N[C@@H](CCCNC(=N)N)C(=O)N[C@@H](CCC(N)=O)C(=O)N[C@@H](CCC(N)=O)C(=O)N[C@@H](C)C(=O)N[C@@H](CCCCNC(=O)COCCOCCNC(=O)COCCOCCNC(=O)CC[C@H](NC(=O)CCCCCCCCCCCCCCCCCCC(=O)O)C(=O)O)C(=O)N[C@@H](CCC(=O)O)C(=O)N[C@@H](C)C(=O)N[C@@H](C)C(=O)N[C@@H](CCC(=O)O)C(=O)N[C@H](C(=O)N[C@@H](CC(C)C)C(=O)N[C@@H](C)C(=O)N[C@@H](CCC(N)=O)C(=O)N[C@H](C(N)=O)C(C)C)[C@@H](C)CC)[C@@H](C)CC)C(C)C)[C@@H](C)O)C(C)C` [SEQ ID NO: 50, (NMeI) VTSLDVPIG αMeL LQKLLEQERAEKARQQAK((2-[2-(2-Amino-ethoxy)-ethoxy]-acetyl)2-γE-CO-(CH2)18-CO2H)EAAEILAQV-NH2] (H-[NMeI]VTSLDVPIG[αMeL]LQKLLEQERAEKARQQAK([AEEA-AEEA-γGlu-C20 diacid])EAAEILAQV-NH2), the concentration for a half-maximal effect (EC50) was found to be 22.4 ± 3.6 pM.

With `CC[C@H](C)[C@H](NC)C(=O)N[C@H](C(=O)N[C@@H](CC(C)C)C(=O)N[C@@H](CO)C(=O)N[C@@H](CC(C)C)C(=O)N[C@@H](CC(=O)O)C(=O)N[C@H](C(=O)N1CCC[C@H]1C(=O)N[C@H](C(=O)NCC(=O)N[C@@H](CC(C)C)C(=O)N[C@@H](CC(C)C)C(=O)N[C@@H](CCC(N)=O)C(=O)N[C@H](C(=O)N[C@@H](CC(C)C)C(=O)N[C@@H](CC(C)C)C(=O)N[C@@H](CCC(=O)O)C(=O)N[C@@H](CCC(N)=O)C(=O)N[C@@H](CCC(=O)O)C(=O)N[C@@H](CCCCN)C(=O)N[C@@H](CCC(N)=O)C(=O)N[C@@H](CCC(=O)O)C(=O)N[C@@H](CCCCN)C(=O)N[C@@H](CCC(=O)O)C(=O)N[C@@H](CCCCN)C(=O)N[C@@H](CCC(N)=O)C(=O)N[C@@H](CCC(N)=O)C(=O)N[C@@H](C)C(=O)N[C@@H](CCCCNC(=O)COCCOCCNC(=O)COCCOCCNC(=O)CC[C@H](NC(=O)CC[C@H](NC(=O)CCCCCCCCCCCCCCCCCCC(=O)O)C(=O)O)C(=O)O)C(=O)N[C@H](C(=O)N[C@@H](CC(N)=O)C(=O)N[C@@H](C)C(=O)N[C@@H](CCC(N)=O)C(=O)N[C@H](C(=O)N[C@@H](CC(C)C)C(=O)N[C@@H](C)C(=O)N[C@@H](CCC(N)=O)C(=O)N[C@H](C(N)=O)C(C)C)[C@@H](C)CC)[C@@H](C)O)[C@@H](C)CC)[C@@H](C)CC)C(C)C)C(C)C` [SEQ ID NO: 54] (H-[NMeI]VLSLDVPIGLLQILLEQEKQEKEKQQAK([AEEA-AEEA-γGlu-γGlu-C20 diacid])TNAQILAQV-NH2), the EC50 stood at 29.8 ± 2.5 pM.

Consider “Ac-GSPSIVTS[αMeL]DVPT[Aib][αMeL]LQKLLEQERAEKARQQAK([γGlu-AEEA-εLys-C20 diacid])EAAEILAQV-NH2 [SEQ ID NO: 2, Ac-GSPSIVTS αMeL DVPT Aib αMeL LQKLLEQERAEKARQQAK(γE-(2-[2-(2-Amino-ethoxy)-ethoxy]-acetyl)-ϵK-CO-(CH2)18-CO2H)EAAEILAQV-NH2]”, for which the EC50 came out at 12.3 ± 1.8 pM. Regarding “Ac-PPPIVTS[αMeL]DVPT[Aib][αMeL]LQKLLEQERAEKARQQAK([γGlu-AEEA-εLys-C20 diacid])EAAEILAQV-NH2 [SEQ ID NO: 48, Ac-PPPIVTS αMeL DVPT Aib αMeL LQKLLEQERAEKARQQAK(γE-(2-[2-(2-Amino-ethoxy)-ethoxy]-acetyl)-ϵK-CO-(CH2)18-CO2H)EAAEILAQV-NH2]”, the EC50 came to 26.7 ± 3.8 pM.

Broadly, the EC50 is the concentration needed to bring the measured effect to its halfway point.
